Laboratory results reported in patent publication US4190657A, “Naphthyridine derivatives” (Synthelabo, priority 1976, dated 1980).
Like-named read-outs stand apart in the source and are kept apart here.

Assays:
[1] = acute toxicity, 50 percent lethal dose (LD50), graphical method; type: in vivo; settings: mouse, in vivo, ip, mice CD 1, intraperitoneal; Table II; read-out: ACUTE TOXICITY LD50 for intraperitoneal administration
Protocol: (§1) The 50 percent lethal dose (LD50) of the compounds is determined for mice of strain CD 1 by a graphical method.
(§2) The results are indicated in Table II below, for a representative number of compounds.

[2] = system: mice of the CD 1 strain; experiment: anoxia due to pressure reduction, survival time, mean active dose (MAD); type: in vivo, mice (CD 1 strain); settings: mice CD 1, intraperitoneal, 10 minutes before the experiment, 190 mm of mercury, Table II; for ED (100% increase in survival time): Mus musculus, ip, read-out: ANOXIA DUE TO PRESSURE REDUCTION, mean active dose (MAD), dose which increases the survival time by 100%
Protocol: Mice of the CD 1 strain are kept in an atmosphere depleted in oxygen, by setting up a partial vacuum (190 mm. of mercury, corresponding to 5.25% of oxygen).
The survival time of the animals is noted. This time is increased by the agents capable of favouring oxygenation in the tissues and, in particular, in the brain. The compounds studied are administered intraperitoneally in several doses 10 minutes before the experiment. The percentage increases of the survival time relative to the values obtained with control animals are calculated. The mean active dose (MAD), namely the dose which increases the survival time by 100%, is determined graphically.
The results are indicated in Table II below for a representative number of compounds.

[3] = system: curarised rats ("sleep" induced by sodium 4-hydroxy-butyrate); experiment: action on the duration of the "sleep" induced by sodium 4-hydroxy-butyrate (GHB) in curarised rats; type: in vivo, rats (male, Charles River strain); settings: for TOTAL DURATION of the "sleep" / change in vivo at 10 mg/kg / change in vivo at 30 mg/kg: GHB 200 mg/kg i.v.; for TOTAL DURATION of the "sleep": over 75 minutes, comparison 54.12 ± 2.07; for change in vivo at 10 mg/kg / change in vivo at 30 mg/kg: read-out: DIFFERENCE IN % RELATIVE TO THE CONTROLS (total duration of the "sleep")
Protocol: This action was determined from the influence of the compounds on the duration of the "sleep" induced by sodium 4-hydroxy-butyrate (GHB) in curarised rats.
The animals used are male rats of the Charles River strain, weighing 200±20 g. The animals, curarised by alloferin given intraperitoneally at the rate of 1 mg/kg, are placed under artificial respiration by means of a mask applied over the snout (respiration frequency: 40/minute; volume respired: 14 cc). The oesophagus is ligatured beforehand so as to avoid air entering the stomach.
Fronto-parietal and occipital cortical electrodes make it possible to record the electrocorticographic activity on a Grass model 79P polygraph at a speed of 6 mm/sec. The animals are prepared under local anaesthesia (2% xylocaine). The rats are kept at a constant temperature (37.5° C.) throughout the experiment. Ten minutes after the end of the preparation of the rat, a dose of 200 mg/kg of Na 4-hydroxybutyrate is injected intravenously into the tail. […]
The traces are evaluated for periods of 15 minutes over the course of 75 minutes after the injection of "GHB". During this period of analysis, the total duration of the "sleep" is determined. A series of 15 comparisons makes it possible precisely to define the duration of the "GHB sleep".
The statistical analysis of the results is carried out with the aid of the Mann-Whitney "U" test.

[4] = acute toxicity, 50 percent lethal dose (LD50), graphical method; settings: mouse, in vivo, Table III
[5] = system: mice of strain CD 1; experiment: as above; type: in vivo; settings: mice CD 1, intraperitoneal; Table II
Protocol: as §1, §2

[6] = ip, intraperitoneal, read-out: TOXICITY intraperitoneal
[7] = Rattus norvegicus, ip, 1.25 h, read-out: […] % RELATIVE TO THE CONTROLS (total duration of the "sleep"), 10 mg/kg intraperitoneally
[8] = Rattus norvegicus, ip, 1.25 h, read-out: […] % RELATIVE TO THE CONTROLS (total duration of the "sleep"), 30 mg/kg intraperitoneally
[9] = Rattus norvegicus, ip, 1.25 h, 30 mg/kg intraperitoneally
[10] = iv, read-out: TOXICITY intravenous
[11] = Rattus norvegicus, ip, 1.25 h, 10 mg/kg intraperitoneally

Row | SMILES | LD50 [1] | ED (100% increase in survival time) [2] | LD50 [4, 6] | TOTAL DURATION of the "sleep" ([3]; 30 mg/kg intraperitoneally) | also measured
1 | COC(=O)[C@@H]1CC(=O)n2c3c(c4ccccc42)CCN(C)[C@@H]31 (relative stereo) [1 (m.s.cis), Methyl 1,2,3,3a,4,5-hexahydro-3-methyl-6-oxo-6H-indolo[3,2,1-de][1,5]naphthyridine-4-carboxylate] | 170 mg/kg | 4 mg/kg |  |  | 
2 | CCOC(=O)[C@@H]1CC(=O)n2c3c(c4ccccc42)CCN(C)[C@@H]31 (relative stereo) [30 (m.s.)] | 110 mg/kg | 9 mg/kg |  |  | 
3 | COC(=O)[C@@H]1CC(=O)n2c3c(c4ccccc42)CCN(C)[C@H]31 (relative stereo) [Compound 1 trans m.s., Methyl 1,2,3,3a,4,5-hexahydro-3-methyl-6-oxo-6H-indolo[3,2,1-de][1,5]naphthyridine-4-carboxylate] |  |  | 185 mg/kg |  | TOTAL DURATION of the "sleep" ([3]; 40 mg/kg intraperitoneally): 32.01 ± 2.59 minutes. seconds; change in vivo at 40 mg/kg ([3]; Rattus norvegicus, ip, 1.25 h, read-out: […] % RELATIVE TO THE CONTROLS (total duration of the "sleep")): -41%; LD50 ([4]; intravenous, read-out: TOXICITY intravenous): 47 mg/kg
4 | COC(=O)[C@@H]1CC(=O)n2c3c(c4ccccc42)CCN(CCC(C)=O)[C@@H]31 (relative stereo) [Compound 49 m.s.cis] |  |  | 600 mg/kg | 38.51 ± 3.12 minutes. seconds | TOTAL DURATION of the "sleep" ([3]; 10 mg/kg intraperitoneally): 35.22 ± 2.26 minutes. seconds; change in vivo at 10 mg/kg [3, 7]: -35%; change in vivo at 30 mg/kg [3, 8]: -28%
5 | COC(=O)[C@@H]1CC(=O)n2c3c(c4cc(Cl)ccc42)CCN[C@@H]31 (relative stereo) [Compound 58 cis-isomer] |  |  | 190 mg/kg | 36.08 ± 2.47 minutes. seconds | change in vivo at 30 mg/kg [3, 8]: -33%
6 | COC(=O)[C@@H]1CC(=O)n2c3c(c4cc(Cl)ccc42)CCN[C@H]31 (relative stereo) [Compound 58 trans-isomer] |  |  | 170 mg/kg | 31.12 ± 2.18 minutes. seconds | change in vivo at 30 mg/kg [3, 8]: -42%
7 | COC(=O)[C@@H]1CC(=O)n2c3c(c4cc(F)ccc42)CCN(C)[C@@H]31 (relative stereo) [Compound 60 cis-isomer] |  |  | 725 mg/kg |  | TOTAL DURATION of the "sleep" ([3]; 10 mg/kg intraperitoneally): 34.22 ± 2.47 minutes. seconds; change in vivo at 10 mg/kg [3, 7]: -37%
8 | CC(O)CCN1CCc2c3n(c4ccccc24)C(=O)CCC31 (single isomer, unassigned) [35 (base, isomer A)] | 150 mg/kg | 9 mg/kg |  |  | 
9 | CC(O)CN1CCc2c3n(c4ccccc24)C(=O)CCC31 (single isomer, unassigned) [Compound 63 isomer A] |  |  | 125 mg/kg | 34.52 ± 2.14 minutes. seconds | change in vivo at 30 mg/kg [3, 9]: -36%; LD50 [4, 10]: 75 mg/kg
10 | CN1CCc2c3n(c4ccccc24)C(=O)CCC31 (stereo not shown) [2 (m.s.), 1,2,3,3a,4,5-Hexahydro-3-methyl-6H-indolo[3,2,1-de][1,5]naphthyridin-6-one] |  |  |  |  | ACUTE TOXICITY LD50 for intraperitoneal administration [5]: 52 mg/kg; ANOXIA DUE TO PRESSURE REDUCTION, mean active dose (MAD), dose which increases the survival time by 100% [2]: 4.5
11 | CCN1CCc2c3n(c4ccccc24)C(C)CCC31 (stereo not shown) [28 (m.s.)] | 40 mg/kg | 4.5 mg/kg |  |  | 
12 | CN1CCc2c3n(c4ccccc24)C(=O)CCC31 (stereo not shown) [Compound 2 (base), 1,2,3,3a,4,5-Hexahydro-3-methyl-6H-indolo[3,2,1-de][1,5]naphthyridin-6-one] | 85 mg/kg | 6 mg/kg |  |  | 
13 | CCN1CCc2c3n(c4ccccc24)C(=O)CCC31 (stereo not shown) [Compound 3] | 58 mg/kg | 9 mg/kg |  |  | 
14 | CC1=CCC2c3c(c4ccccc4n31)CCN2C (stereo not shown) [Compound 9, 1,2,3,3a-Tetrahydro-3,6-dimethyl-4H-indolo[3,2,1-de][1,5]naphthyridine] | 78 mg/kg | 6.5 mg/kg |  |  | 
15 | CC1CCC2c3c(c4ccccc4n31)CCN2C (stereo not shown) [Compound 10] | 50 mg/kg | 6.5 mg/kg |  |  | 
16 | Cc1ccc2c(c1)c1c3n2C(=O)CCC3NCC1 (stereo not shown) [Compound 11] |  |  | 155 mg/kg | 34.08 ± 1.21 minutes. seconds | change in vivo at 30 mg/kg [3, 9]: -37%; LD50 [4, 10]: 105 mg/kg
17 | COC(=O)CCN1CCc2c3n(c4ccccc24)C(=O)CCC31 (stereo not shown) [Compound 19] |  |  | 680 mg/kg | 38.59 ± 1.20 minutes. seconds | change in vivo at 30 mg/kg [3, 9]: -28%; LD50 [4, 10]: 103 mg/kg
18 | CCN1CCc2c3n(c4ccccc24)C(C)(O)CCC31 (stereo not shown) [Compound 21] | 75 mg/kg | 7 mg/kg |  |  | 
19 | CCCN1CCc2c3n(c4ccccc24)C(C)(O)CCC31 (stereo not shown) [Compound 22] | 105 mg/kg | 8 mg/kg |  |  | 
20 | CCN1CCc2c3n(c4ccccc24)C(C)=CCC31 (stereo not shown) [Compound 26] | 67 mg/kg | 10 mg/kg |  |  | 
21 | CC(=O)CCN1CCc2c3n(c4ccccc24)C(=O)CCC31 (stereo not shown) [Compound 33] | 170 mg/kg | 8 mg/kg |  |  | 
22 | COc1ccc2c(c1)c1c3n2C(=O)CCC3N(C)CC1 (stereo not shown) [Compound 38] | 65 mg/kg | 8 mg/kg |  |  | 
23 | COC(=O)C1CC(=O)n2c3c(c4cc(Cl)ccc42)CCNC31 (stereo not shown) [Compound 51] |  |  | 760 mg/kg | 37.51 ± 2.12 minutes. seconds | change in vivo at 30 mg/kg [3, 8]: -30%
24 | O=C1CCC2NCCc3c2n1c1ccc(Cl)cc31 (stereo not shown) [Compound 52] | 165 mg/kg | 9.5 mg/kg |  | 32.35 ± 5.02 minutes. seconds | TOTAL DURATION of the "sleep" ([3]; 10 mg/kg intraperitoneally): 37.34 ± 3.35 minutes. seconds; change in vivo at 10 mg/kg [3, 11]: -31%; change in vivo at 30 mg/kg [3, 9]: -40%; LD50 [4, 10]: 110 mg/kg
25 | CN1CCc2c3n(c4ccc(Cl)cc24)C(=O)CCC31 (stereo not shown) [Compound 53] | 150 mg/kg | 8 mg/kg |  |  | 
26 | O=C1CCC2NCCc3c2n1c1ccc(F)cc31 (stereo not shown) [Compound 54] |  |  | 100 mg/kg | 28.28 ± 4.28 minutes. seconds | TOTAL DURATION of the "sleep" ([3]; 10 mg/kg intraperitoneally): 40.01 ± 5.00 minutes. seconds; change in vivo at 10 mg/kg [3, 11]: -26%; change in vivo at 30 mg/kg [3, 9]: -47%
27 | CC(=O)CCN1CCc2c3n(c4ccc(Cl)cc24)C(=O)CCC31 (stereo not shown) [Compound 56] |  |  | 575 mg/kg | 30.39 ± 3.01 minutes. seconds | TOTAL DURATION of the "sleep" ([3]; 10 mg/kg intraperitoneally): 43.07 ± 3.26 minutes. seconds; change in vivo at 10 mg/kg [3, 11]: -20%; change in vivo at 30 mg/kg [3, 9]: -43%
28 | CC(=O)CN1CCc2c3n(c4ccccc24)C(=O)CCC31 (stereo not shown) [Compound 62] | 190 mg/kg | 10 mg/kg |  |  | 
29 | O=C1CCC2NCCc3c2n1c1cccc(Cl)c31 (stereo not shown) [Compound 65] |  |  | 54 mg/kg |  | TOTAL DURATION of the "sleep" ([3]; 10 mg/kg intraperitoneally): 34.51 ± 1.42 minutes. seconds; change in vivo at 10 mg/kg [3, 11]: -36%
30 | Cc1ccc2c3c4n(c2c1)C(=O)CCC4N(C)CC3 (stereo not shown) [Compound 69] |  |  | 88 mg/kg |  | TOTAL DURATION of the "sleep" ([3]; 10 mg/kg intraperitoneally): 29.46 ± 1.27 minutes. seconds; change in vivo at 10 mg/kg [3, 11]: -45%
